Assays:
[1] = system: human cell lines (A549, ASC, HA1E, HT29, MCF7, PC3, VCAP); assay: Differential gene expression (QuantSeq RNA sequencing) after bumetanide treatment of cell lines; type: cell-based; settings: 10 uM, 6 or 24 hours, across cell lines
Description: To characterize the cell line invariant mechanism of action, bumetanide was tested across different human cell lines including several cancer cell lines (such as A549, MCF7, PC3, HT29 and VAP) as well as cells from healthy tissues (such as ASC and HA1E). These cell lines (Table 3) were chosen due to their ease of manipulation and suitability for systematic screening. […] Incubation of cell types was performed inside an incubator with a humified atmosphere of 95% and 5% of CO2, and a constant temperature of 37° C. Cells were treated with bumetanide using a dilution of 10 uM for all replicates at a time duration of 6 or 24 hours. [table] Following drug treatment, RNA extracted from each treated cell line was sequenced with QuantSeq with 4-6 million coverage reads per sample in triplicates.

[2] = system: patients with idiopathic ASD; assay: Observational clinical pilot study: earlier oral bumetanide treatment of ASD patients; type: in vivo, human; settings: three patients with idiopathic ASD; oral solution 0.5, 1.0 or 2 mg twice daily for three months
Description: The main goal of this pilot study was to validate the clinical benefit of bumetanide in patients showing clinical signs and symptoms characterizing ASD phenotype 3. First, a custom semi-structured online clinical questionnaire (Questionnaire […] 2021) comprising a total of 38 medical examination questions and 73 medical history questions was administered by a clinician during a remote screening visit (over the phone) that took up to 90 min. This remote screening visit included reviewing detailed medical history and clinical signs and symptoms related to ASD phenotype 3 with the patient/caregiver for a clinical validation. […]

ASD patients = settings: clinical setting; heterogeneous responses reported; cited from earlier work

| Structure (SMILES) | DEG ranking after treatment, GNAS ([1]; gene GNAS) | Direction of differential expression, GNAS ([1]; gene GNAS) | DEG ranking after treatment, KCNJ6 ([1]; gene KCNJ6) | DEG ranking after treatment, KCNJ10 ([1]; gene KCNJ10) | DEG ranking after treatment, KCNK3 ([1]; gene KCNK3) | DEG ranking after treatment, KCNQ3 ([1]; gene KCNQ3) | DEG ranking after treatment, KCNV1 ([1]; gene KCNV1) | DEG ranking after treatment, SLC12A5 (KCC2) ([1]; gene SLC12A5 (KCC2)) | DEG ranking after treatment, SNAP25 ([1]; gene SNAP25) | Clinical response of ASD patients to treatment [2] | Effect on behaviour in ASD patients (ASD patients) |
| --- | --- | --- | --- | --- | --- | --- | --- | --- | --- | --- | --- |
| CCCCNc1cc(C(=O)O)cc(S(N)(=O)=O)c1Oc1ccccc1 [bumetanide, 3-(butylamino)-4-phenoxy-5-sulfamoylbenzoic acid] | 1 | DOWN | 19 | 113 | 49 | 48 | 165 | 35 | 1 | shown improvement | – |
| C[S+]([O-])CCCCN=C=S (centres unmarked) [sulforaphane] | – | – | – | – | – | – | – | – | – | – | improve behaviour in some ASD patients |

Source: US20230134747A1, “COMPOSITIONS FOR THE TREATMENT OF AUTISM SPECTRUM DISORDER” (STALICLA SA, priority 2020, published 2023)
